# In ChEMBL document CHEMBL3832081, “DailyMed|setid=caaf1b7f-eaab-4fb6-a955-b7d881038fef | METRONIDAZOLE - metronidazole gel|Sandoz Inc”:
# Experiment: Evaluation of pharmacokinetic parameters for metronidazole following topical administration of metronidazole gel USP, 1% to the face of 13 patients with moderate to severe rosacea.
# Assay type: ADME, organism-based
# Set-up: dose 1 g, route topical
# Details: human, in vivo, topical or ocular, dosed compound id 31, dosed compound name METRONIDAZOLE, gender male and female, regimen Once daily, study dosing duration 7 days, tissue Plasma
smiles,measurement,setting,value
Cc1ncc([N+](=O)[O-])n1CCO [METRONIDAZOLE],Cmax,1 g,32 ng/mL
same,AUC,"1 g, read-out: AUC(0-24)",595 ng·h/mL
same,Tmax,"dose 1 g, route topical",6 to 10 h
